As usually defined, the GI50 is the concentration giving 50% growth inhibition.

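1) Cells in 96-well plates. 2) Compound, 48 h, 5 concentrations. 3) Linear interpolation between surrounding doses. 4) Unreached endpoint = highest concentration. The concentration for 50% growth inhibition is given as GI50.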 Active and inactive are the calls of the source. Rule as the data show it: active = GI50 up to about 1.1 µM and inactive = higher.

Among the test systems are KM12; MDA-N; CCRF-CEM; T47D; HT-29; SW-620; SK-MEL-2; OVCAR-3; NCI-H23; RXF 393; MCF7; SF-268; LOX IMVI; MDA-MB-435; MOLT-4; SK-MEL-28; K562; HL-60; COLO 205; IGROV-1.
What all share (experiment): DTP human tumour cell line panel, 48 h

As to `Oc1ccc2ccccc2c1/C=C/c1ccc2c(Br)cc(Br)c(O)c2n1`, the GI50 in the experiment on KM12 is 5.4 µM (inactive); with MDA-N, 9.71 µM (inactive); with CCRF-CEM, 2.38 µM (inactive); in the experiment on T47D it was 11.6 µM (inactive); in the experiment on HT-29, 9.73 µM (inactive); with SW-620, 4.9 µM (inactive). The GI50 in the experiment with SK-MEL-2 is 8.34 µM (inactive); with OVCAR-3 it was 2.49 µM (inactive); in the experiment on NCI-H23, 5.96 µM (inactive); in the experiment with RXF 393, 8.61 µM (inactive); in the experiment with MCF7, 1.24 µM (inactive); with SF-268 it was 5.87 µM (inactive). Moreover, the GI50 in the experiment with LOX IMVI is 2.6 µM (inactive); with MDA-MB-435 it was 11.8 µM (inactive); with MOLT-4, 1.59 µM (inactive); in the experiment with SK-MEL-28 it was 12.8 µM (inactive); in the experiment on K562 it was 3.11 µM (inactive); in the experiment with HL-60, 2.87 µM (inactive). Also, the GI50 in the experiment on COLO 205 was 4.86 µM (inactive); in the experiment with IGROV-1, 2.17 µM (inactive).
On to `COc1cc(C=C2N=C(c3ccccc3)N(n3c(-c4ccccc4)nc4ccccc4c3=O)C2=O)cc(OC)c1OC`, for which the GI50 in the experiment on KM12 is 19.7 µM (inactive); with MDA-N, 29 µM (inactive); in the experiment with CCRF-CEM, 48.5 µM (inactive); in the experiment on T47D it was 20.3 µM (inactive); in the experiment with HT-29 it was 31.8 µM (inactive); with SW-620, 31.9 µM (inactive). The GI50 in the experiment with SK-MEL-2 is 21.1 µM (inactive); with OVCAR-3, 21.3 µM (inactive); in the experiment on NCI-H23 it was 19.1 µM (inactive); with RXF 393, 12.1 µM (inactive); in the experiment with MCF7, 22 µM (inactive); in the experiment with SF-268 it was 28.4 µM (inactive). For the same molecule, the GI50 in the experiment on LOX IMVI was 21.6 µM (inactive); in the experiment with MDA-MB-435 it was 24.3 µM (inactive); in the experiment with MOLT-4 it was 30 µM (inactive); in the experiment on SK-MEL-28, 17.7 µM (inactive); in the experiment on K562 it was 45.8 µM (inactive); with HL-60 it was 49.1 µM (inactive). In addition, the GI50 is 22 µM (inactive) in the experiment on COLO 205 and 32.5 µM (inactive) with IGROV-1.
For `Cc1cc(OCc2nc(N)nc(N)c2-c2ccc(Cl)c(Cl)c2)ccc1[N+](=O)[O-]`, the GI50 in the experiment with KM12 was 0.692 µM (active); in the experiment on MDA-N, 0.0776 µM (active); in the experiment on CCRF-CEM it was 0.0235 µM (active); with T47D it was 2.44 µM (inactive); in the experiment with HT-29 it was 0.0927 µM (active); with SW-620, 0.235 µM (active). In addition, the GI50 in the experiment with SK-MEL-2 was 1.41 µM (inactive); in the experiment on OVCAR-3, 0.282 µM (active); in the experiment on NCI-H23 it was 0.141 µM (active); in the experiment with RXF 393, 0.794 µM (active); in the experiment on MCF7, 0.262 µM (active); in the experiment on SF-268 it was 0.771 µM (active). Moreover, the GI50 was 0.0818 µM (active) with LOX IMVI; 0.0721 µM (active) with MDA-MB-435; 0.0933 µM (active) in the experiment on MOLT-4; 0.531 µM (active) with SK-MEL-28; 0.0255 µM (active) in the experiment on K562; 0.356 µM (active) in the experiment with HL-60. Also, the 50% growth inhibitory concentration (GI50) is 0.705 µM (active) in the experiment with COLO 205 and 0.0723 µM (active) in the experiment with IGROV-1.
For `CC(=N\N)/C(C)=N/N=C(C)/C(C)=N/N=C(C)/C(C)=N/N`, the GI50 in the experiment on KM12, with MDA-N, with CCRF-CEM, in the experiment on T47D, in the experiment with HT-29 and in the experiment with SW-620 was > 100 µM (inactive) throughout. The GI50 in the experiment on SK-MEL-2, in the experiment on OVCAR-3, in the experiment with NCI-H23, in the experiment with RXF 393, with MCF7 and in the experiment with SF-268 was > 100 µM (inactive) throughout. For the same molecule, the GI50 in the experiment on LOX IMVI was > 100 µM (inactive); with MDA-MB-435, > 100 µM (inactive); in the experiment on MOLT-4, 0.1 µM (active); in the experiment with SK-MEL-28, > 100 µM (inactive); with K562, > 100 µM (inactive); with HL-60, 28.5 µM (inactive). The GI50 in the experiment on COLO 205 and in the experiment on IGROV-1 was > 100 µM (inactive) each time.
In the case of `COC(=O)C1=NN2c3ccccc3CN([C@@H](C)c3ccccc3)C(=O)[C@@H]2C1`, the GI50 in the experiment on KM12 is 21.2 µM (inactive); with MDA-N, 28.3 µM (inactive); in the experiment on CCRF-CEM, 25.7 µM (inactive); in the experiment on T47D, 14.1 µM (inactive); in the experiment with HT-29 it was 44.1 µM (inactive); in the experiment on SW-620, 87.3 µM (inactive). Moreover, the GI50 in the experiment on SK-MEL-2 was 28.7 µM (inactive); in the experiment on OVCAR-3, 30.8 µM (inactive); in the experiment with NCI-H23, 32.9 µM (inactive); in the experiment with RXF 393 it was 46.6 µM (inactive); in the experiment with MCF7 it was 34.8 µM (inactive); in the experiment on SF-268 it was 28.7 µM (inactive). The GI50 with LOX IMVI is 25.5 µM (inactive); with MDA-MB-435, 16.6 µM (inactive); with MOLT-4, 15 µM (inactive); in the experiment with SK-MEL-28, 38.7 µM (inactive); in the experiment on K562 it was 21.8 µM (inactive); in the experiment on HL-60 it was 23.9 µM (inactive). Further, the GI50 in the experiment on COLO 205 was 35.6 µM (inactive); in the experiment on IGROV-1, 64.1 µM (inactive).
On to `NC(C(F)(F)F)(C(F)(F)F)P(=O)(Cc1ccccc1)Cc1ccccc1`, for which the GI50 with KM12, in the experiment with MDA-N, in the experiment on CCRF-CEM, in the experiment on T47D, in the experiment on HT-29 and in the experiment on SW-620 was > 100 µM (inactive) in each case. For the same molecule, the GI50 is > 100 µM (inactive) in the experiment on SK-MEL-2; > 100 µM (inactive) in the experiment on OVCAR-3; > 100 µM (inactive) in the experiment on NCI-H23; 28.9 µM (inactive) in the experiment on RXF 393; > 100 µM (inactive) with MCF7; 73.8 µM (inactive) in the experiment with SF-268. Moreover, the GI50 with LOX IMVI, with MDA-MB-435, in the experiment on MOLT-4, in the experiment with SK-MEL-28, in the experiment with K562 and with HL-60 was > 100 µM (inactive) in each case. The GI50 with COLO 205 and in the experiment on IGROV-1 was > 100 µM (inactive) throughout.
On to `CC1(C)CC(O)C2=C(O1)C(=O)c1ncccc1C2=O` (stereo not given), for which the GI50 in the experiment with KM12 is 3.48 µM (inactive); in the experiment with MDA-N, 1.75 µM (inactive); in the experiment on CCRF-CEM, 2.19 µM (inactive); with T47D it was 2.26 µM (inactive); with HT-29, 3.05 µM (inactive); in the experiment on SW-620 it was 1.87 µM (inactive). Besides, the GI50 in the experiment with SK-MEL-2 is 2.58 µM (inactive); in the experiment on OVCAR-3, 2.35 µM (inactive); with NCI-H23, 1.64 µM (inactive); with RXF 393 it was 3.4 µM (inactive); in the experiment on MCF7 it was 2.12 µM (inactive); in the experiment with SF-268, 2 µM (inactive). Further, the GI50 in the experiment on LOX IMVI was 1.58 µM (inactive); in the experiment with MDA-MB-435, 1.71 µM (inactive); in the experiment with MOLT-4, 1.93 µM (inactive); with SK-MEL-28, 1.69 µM (inactive); with K562, 2.11 µM (inactive); in the experiment with HL-60 it was 1.7 µM (inactive). Further, the GI50 was 2.32 µM (inactive) in the experiment on COLO 205 and 2.17 µM (inactive) in the experiment on IGROV-1.
`Oc1cccc(-c2nc3cc(F)ccc3s2)c1`: the GI50 with KM12 is 11.9 µM (inactive); in the experiment on MDA-N, 19.4 µM (inactive); in the experiment on CCRF-CEM it was 22.3 µM (inactive); in the experiment on T47D, 0.225 µM (active); with HT-29, 16.6 µM (inactive); in the experiment on SW-620, 22 µM (inactive). The GI50 in the experiment on SK-MEL-2 is 19.8 µM (inactive); in the experiment on OVCAR-3 it was 11.5 µM (inactive); in the experiment with NCI-H23, 16.6 µM (inactive); in the experiment on RXF 393, 25.9 µM (inactive); in the experiment with MCF7, 1.6 µM (inactive); in the experiment with SF-268, 23.9 µM (inactive). For the same molecule, the GI50 with LOX IMVI is 15.6 µM (inactive); in the experiment on MDA-MB-435, 23.9 µM (inactive); with MOLT-4, 20.5 µM (inactive); in the experiment with SK-MEL-28, 19.2 µM (inactive); in the experiment with K562, 27.5 µM (inactive); with HL-60, 23.2 µM (inactive). Besides, the GI50 is 15.1 µM (inactive) with COLO 205 and 2.34 µM (inactive) in the experiment with IGROV-1.
As for `CC(C)CNC(=O)O`, the GI50 in the experiment on KM12, with MDA-N, in the experiment with CCRF-CEM, in the experiment on T47D, with HT-29 and in the experiment on SW-620 was > 100 µM (inactive) each time. Further, the GI50 in the experiment on SK-MEL-2, in the experiment with OVCAR-3, in the experiment with NCI-H23, with RXF 393, with MCF7 and in the experiment with SF-268 was > 100 µM (inactive) in each case. The GI50 in the experiment on LOX IMVI, in the experiment on MDA-MB-435, with MOLT-4, in the experiment with SK-MEL-28, in the experiment with K562 and in the experiment with HL-60 was > 100 µM (inactive) in each case. In addition, the GI50 with COLO 205 and with IGROV-1 was > 100 µM (inactive) each time.
In the case of `CC(=O)NC1C(OCc2ccccc2)OC(CO)C(O)C1OC(C)C(=O)NC(C)C(=O)NC(CCC(=O)NCCCNc1c2ccccc2nc2cccc([N+](=O)[O-])c12)C(N)=O` (stereo not given), the GI50 was 2.57 µM (inactive) with KM12; 1.25 µM (inactive) in the experiment with MDA-N; 7.48 µM (inactive) in the experiment with CCRF-CEM; 16.8 µM (inactive) with T47D; 0.29 µM (active) in the experiment with HT-29; 0.229 µM (active) in the experiment on SW-620. Moreover, the GI50 in the experiment on SK-MEL-2 is 1.32 µM (inactive); with OVCAR-3 it was 2.34 µM (inactive); in the experiment with NCI-H23, 2.55 µM (inactive); in the experiment on RXF 393 it was 1.31 µM (inactive); in the experiment on MCF7, 0.64 µM (active); in the experiment on SF-268 it was 1.38 µM (inactive). Further, the GI50 in the experiment on LOX IMVI is 3.65 µM (inactive); in the experiment with MDA-MB-435, 1.16 µM (inactive); in the experiment with MOLT-4 it was 3.27 µM (inactive); with SK-MEL-28, 2.58 µM (inactive); with K562, 1.17 µM (inactive); in the experiment with HL-60, 1.26 µM (inactive). The values for the GI50 in the experiment on COLO 205 and with IGROV-1 were 0.57 µM (active) and 19.1 µM (inactive), respectively.

The values above are taken from ChEMBL document CHEMBL1201862, “PubChem BioAssay data set” (2004).
